From ChEMBL document CHEMBL3885861, “Open TG-GATES”

Species on record: Rattus norvegicus
Experiment: Open TG-GATES - Regimen: Daily Repeat
Assay type: toxicity, organism-based, Sprague-Dawley
Design: regimen Daily Repeat, gender Male, age 6 weeks
Settings: in vivo, po, 0 mg/kg, route gavage, dose level Control; for APTT / Bas / Eos / Fbg / Hb / Ht / Lym / MCH / MCHC / MCV / Mono / Neu / PT / Plat / RBC / Ret / WBC: tissue Blood; for KIDNEY_L / KIDNEY_R / KIDNEY_TOTAL: tissue Kidney; for LIVER: tissue Liver; for A/G / ALP / ALT / AST / BUN / CRE / Ca / Cl / DBIL / GLC / IP / K / LDH / Na / PL / RALB / TBIL / TC / TG / TP / gamma-GTP: tissue Plasma

## Cn1c(=O)c2[nH]cnc2n(C)c1=O.O [THEOPHYLLINE]
72 h, time 3 day
  TERMINAL_BW: 247 g
  APTT: 23.1 s
  Bas: 0%
  Eos: 0.8%
  Fbg: 314.4 mg/dL
  Hb: 13.2 g/dL
  Ht: 39.5%
  Lym: 79.4%
  MCH: 21.2 pg
  MCHC: 33.5%
  MCV: 63.2 fL
  Mono: 3.2%
  Neu: 15.2%
  PT: 15 s
  Plat: 114.7 x10_4/uL
  RBC: 625.4 x10_4/ul
  Ret: 7.3%
  WBC: 109 x10_2/uL
  KIDNEY_L: 1.1 g
  KIDNEY_R: 1.1 g
  KIDNEY_TOTAL: 2.2 g
  LIVER: 12.2 g
  A/G: 1.2
  ALP: 1800.8 IU/L
  ALT: 48.4 IU/L
  AST: 71.4 IU/L
  BUN: 17.6 mg/dL
  CRE: 0.2 mg/dL
  Ca: 10.7 mg/dL
  Cl: 105.8 meq/L
  DBIL: 0 mg/dL
  GLC: 203.8 mg/dL
  IP: 8.5 mg/dL
  K: 4.3 meq/L
  LDH: 183.6 IU/L
  Na: 141 meq/L
  PL: 156.6 mg/dL
  RALB: 3 g/dL
  TBIL: 0 mg/dL
  TC: 85 mg/dL
  TG: 96.2 mg/dL
  TP: 5.5 g/dL
  gamma-GTP: 1.6 IU/L
[…], time 7 day
  TERMINAL_BW: 278.6 g
  APTT: 21.8 s
  Bas: 0%
  Eos: 1%
  Fbg: 305.4 mg/dL
  Hb: 13.9 g/dL
  Ht: 40.5%
  Lym: 77.8%
  MCH: 20.9 pg
  MCHC: 34.2%
  MCV: 61.2 fL
  Mono: 2.8%
  Neu: 17.4%
  PT: 15.8 s
  Plat: 112 x10_4/uL
  RBC: 662 x10_4/ul
  Ret: 6%
  WBC: 113.8 x10_2/uL
  KIDNEY_L: 1.2 g
  KIDNEY_R: 1.3 g
  KIDNEY_TOTAL: 2.5 g
  LIVER: 12.9 g
  A/G: 1.2
  ALP: 1566.8 IU/L
  ALT: 43.8 IU/L
  AST: 80.4 IU/L
  BUN: 20 mg/dL
  CRE: 0.2 mg/dL
  Ca: 10.3 mg/dL
  Cl: 106.6 meq/L
  DBIL: 0 mg/dL
  GLC: 212.2 mg/dL
  IP: 7.5 mg/dL
  K: 4.6 meq/L
  LDH: 253.2 IU/L
  Na: 141.4 meq/L
  PL: 145.2 mg/dL
  RALB: 3 g/dL
  TBIL: 0 mg/dL
  TC: 69.4 mg/dL
  TG: 106.2 mg/dL
  TP: 5.6 g/dL
  gamma-GTP: 1.8 IU/L
[…], time 14 day
  TERMINAL_BW: 330.3 g
  APTT: 24.2 s
  Bas: 0%
  Eos: 0.8%
  Fbg: 324.6 mg/dL
  Hb: 14.5 g/dL
  Ht: 42.5%
  Lym: 79.2%
  MCH: 21 pg
  MCHC: 34.1%
  MCV: 61.5 fL
  Mono: 3%
  Neu: 15.2%
  PT: 15.6 s
  Plat: 114.6 x10_4/uL
  RBC: 691.8 x10_4/ul
  Ret: 4.4%
  WBC: 138.2 x10_2/uL
  KIDNEY_L: 1.3 g
  KIDNEY_R: 1.3 g
  KIDNEY_TOTAL: 2.7 g
  LIVER: 15.4 g
  A/G: 1.1
  ALP: 1434.6 IU/L
  ALT: 38.2 IU/L
  AST: 68.4 IU/L
  BUN: 18.6 mg/dL
  CRE: 0.2 mg/dL
  Ca: 10.3 mg/dL
  Cl: 107 meq/L
  DBIL: 0 mg/dL
  GLC: 188.2 mg/dL
  IP: 7.3 mg/dL
  K: 4.4 meq/L
  LDH: 184.4 IU/L
  Na: 142 meq/L
  PL: 149.2 mg/dL
  RALB: 3.1 g/dL
  TBIL: 0.004 mg/dL
  TC: 71.4 mg/dL
  TG: 135.4 mg/dL
  TP: 5.9 g/dL
  gamma-GTP: 2.6 IU/L
[…], time 28 day
  TERMINAL_BW: 378.5 g
  APTT: 24.9 s
  Bas: 0%
  Eos: 1%
  Fbg: 303 mg/dL
  Hb: 14.8 g/dL
  Ht: 42.6%
  Lym: 80.2%
  MCH: 18.9 pg
  MCHC: 34.8%
  MCV: 54.6 fL
  Mono: 1.6%
  Neu: 15%
  PT: 16.2 s
  Plat: 98.8 x10_4/uL
  RBC: 783 x10_4/ul
  Ret: 2.7%
  WBC: 113.3 x10_2/uL
  KIDNEY_L: 1.4 g
  KIDNEY_R: 1.4 g
  KIDNEY_TOTAL: 2.8 g
  LIVER: 15.4 g
  A/G: 1
  ALP: 1140.2 IU/L
  ALT: 38.6 IU/L
  AST: 64.8 IU/L
  BUN: 18.2 mg/dL
  CRE: 0.2 mg/dL
  Ca: 10.3 mg/dL
  Cl: 106.4 meq/L
  DBIL: 0 mg/dL
  GLC: 204.6 mg/dL
  IP: 6.5 mg/dL
  K: 4.1 meq/L
  LDH: 132.2 IU/L
  Na: 142.4 meq/L
  PL: 140.6 mg/dL
  RALB: 3.1 g/dL
  TBIL: 0.01 mg/dL
  TC: 65 mg/dL
  TG: 145.6 mg/dL
  TP: 6.1 g/dL
  gamma-GTP: 2.8 IU/L
